Results on five compounds are retold here after patent publication US20240270762A1, “PENICILLIN-BINDING PROTEIN INHIBITORS” (priority 2021, published 2024).

Bounds are passed on as bounds.

For this experiment, the target named is T1, PBP3 from Pseudomonas aeruginosa (PAO1) (Pseudomonas aeruginosa, UniProt G3XD46).
T1 construct: made in house
T1 sequence (G3XD46 whole entry): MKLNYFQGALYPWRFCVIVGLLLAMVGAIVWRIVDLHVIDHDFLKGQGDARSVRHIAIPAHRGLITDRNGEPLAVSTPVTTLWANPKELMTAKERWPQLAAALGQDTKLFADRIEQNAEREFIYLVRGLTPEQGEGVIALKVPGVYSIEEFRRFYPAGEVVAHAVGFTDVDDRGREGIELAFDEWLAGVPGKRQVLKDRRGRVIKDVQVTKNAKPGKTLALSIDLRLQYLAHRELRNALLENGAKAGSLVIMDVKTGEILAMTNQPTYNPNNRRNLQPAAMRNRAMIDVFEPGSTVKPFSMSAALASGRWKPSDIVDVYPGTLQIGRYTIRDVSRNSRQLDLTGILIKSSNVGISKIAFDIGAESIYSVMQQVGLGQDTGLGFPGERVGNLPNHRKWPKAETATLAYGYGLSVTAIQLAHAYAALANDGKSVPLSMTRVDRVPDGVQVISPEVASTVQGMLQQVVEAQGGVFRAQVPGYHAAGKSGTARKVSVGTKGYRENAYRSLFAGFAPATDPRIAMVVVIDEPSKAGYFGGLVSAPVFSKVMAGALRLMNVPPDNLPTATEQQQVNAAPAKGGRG
The experiment in a line: Bocillin-FL fluorescence polarization competition binding, P. aeruginosa PBP3. The following applies: Binding affinity to P. aeruginosa PBP3; fluorescence polarization competition binding assay using Bocillin-FL; read-out: P. aeruginosa PBP3 Potency. The method, boiled down: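 Purified PBP was preincubated with inhibitor (E. coli PBP3 1.5 μM, 30 min; P. aeruginosa PBP3 0.75 μM, A. baumannii PBP3 0.2 μM and PBP1a 1 μM, 15 min), then Bocillin-FL (0.1 μM; 0.05 μM for PBP1a) added and FP read up to 60 min. EC50 = 50% loss of bound probe.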
A general note: Fluorescence polarisation rises when a labelled molecule tumbles more slowly, as on binding a larger partner.
For `CS(=O)(=O)N1CCN(C(=O)N[C@H](C(=O)N[C@H]2Cc3cccc(C(=O)O)c3OB2O)c2ccc(P(=O)(O)O)cc2)C1=O` (single isomer, unassigned) [Example 5], the IC50 fell in the range of 10 to 50 µM.
On to `CCN1CCN(C(=O)NC(C(=O)N[C@H]2Cc3cccc(C(=O)O)c3OB2O)c2ccc(P(=O)(O)O)cc2F)C(=O)C1=O` (stereo partly drawn) [Example 1, (3R)-3-(2-(4-ethyl-2,3-dioxopiperazine-1-carboxamido)-2-(2-fluoro-4-phosphonophenyl)acetamido)-2-hydroxy-3,4-dihydro-2H-benzo[e][1,2]oxaborinine-8-carboxylic acid], for which the IC50 is less than 10 µM.
As to `CCN1CCN(C(=O)NC(C(=O)N[C@H]2Cc3cccc(C(=O)O)c3OB2O)c2cc(P(=O)(O)O)ccc2F)C(=O)C1=O` (stereo partly drawn) [Example 2, (3R)-3-(2-(4-ethyl-2,3-dioxopiperazine-1-carboxamido)-2-(2-fluoro-5-phosphonophenyl)acetamido)-2-hydroxy-3,4-dihydro-2H-benzo[e][1,2]oxaborinine-8-carboxylic acid], the IC50 was less than 10 µM.
For `NCCN1CCN(C(=O)NC(C(=O)N[C@H]2Cc3cccc(C(=O)O)c3OB2O)c2ccc(P(=O)(O)O)cc2)C(=O)C1=O` (stereo partly drawn) [Example 3, (3R)-3-(2-(4-(2-aminoethyl)-2,3-dioxopiperazine-1-carboxamido)-2-(4-phosphonophenyl)acetamido)-2-hydroxy-3,4-dihydro-2H-benzo[e][1,2]oxaborinine-8-carboxylic acid], the IC50 is 10 to 50 µM.
On to `O=C(O)c1cccc2c1OB(O)[C@@H](NC(=O)C(NC(=O)N1CCN(CC(F)(F)F)C(=O)C1=O)c1ccc(P(=O)(O)O)cc1)C2` (stereo partly drawn) [Example 4, (3R)-3-(2-(2,3-dioxo-4-(2,2,2-trifluoroethyl)piperazine-1-carboxamido)-2-(4-phosphonophenyl)acetamido)-2-hydroxy-3,4-dihydro-2H-benzo[e][1,2]oxaborinine-8-carboxylic acid], for which the IC50 was less than 10 µM.
